In publication PMC7407272, “Induction of Lysosome Membrane Permeabilization as a Therapeutic Strategy to Target Pancreatic Cancer Stem Cells” (Cancers, 2020):

How the values were obtained:
Experiment in all cases: KINOMEscan
ABL1(F317L)-nonP = target: T1, ABL1(F317L)-nonP (Homo sapiens, UniProt P00519, F317L); assay type: binding; conditions: read-out: % Ctrl
T1 construct: purchased DiscoveRx KINOMEscan

FLT3(D835Y) = target: T2, FLT3(D835Y) (Homo sapiens, UniProt P36888, D835Y); assay type: binding; conditions: read-out: % Ctrl
T2 construct: purchased DiscoveRx KINOMEscan

FLT3(ITD) = assay type: binding, human; conditions: 1 µM
PIK3CA(C420R) = target: T3, PIK3CA(C420R) (Homo sapiens, UniProt P42336, C420R); assay type: binding; conditions: read-out: % Ctrl
T3 construct: purchased DiscoveRx KINOMEscan

PIK3CA(E545A) = target: T4, PIK3CA(E545A) (Homo sapiens, UniProt P42336, E545A); assay type: binding; conditions: read-out: % Ctrl
T4 construct: purchased DiscoveRx KINOMEscan
T4 sequence (P42336 whole entry E545A): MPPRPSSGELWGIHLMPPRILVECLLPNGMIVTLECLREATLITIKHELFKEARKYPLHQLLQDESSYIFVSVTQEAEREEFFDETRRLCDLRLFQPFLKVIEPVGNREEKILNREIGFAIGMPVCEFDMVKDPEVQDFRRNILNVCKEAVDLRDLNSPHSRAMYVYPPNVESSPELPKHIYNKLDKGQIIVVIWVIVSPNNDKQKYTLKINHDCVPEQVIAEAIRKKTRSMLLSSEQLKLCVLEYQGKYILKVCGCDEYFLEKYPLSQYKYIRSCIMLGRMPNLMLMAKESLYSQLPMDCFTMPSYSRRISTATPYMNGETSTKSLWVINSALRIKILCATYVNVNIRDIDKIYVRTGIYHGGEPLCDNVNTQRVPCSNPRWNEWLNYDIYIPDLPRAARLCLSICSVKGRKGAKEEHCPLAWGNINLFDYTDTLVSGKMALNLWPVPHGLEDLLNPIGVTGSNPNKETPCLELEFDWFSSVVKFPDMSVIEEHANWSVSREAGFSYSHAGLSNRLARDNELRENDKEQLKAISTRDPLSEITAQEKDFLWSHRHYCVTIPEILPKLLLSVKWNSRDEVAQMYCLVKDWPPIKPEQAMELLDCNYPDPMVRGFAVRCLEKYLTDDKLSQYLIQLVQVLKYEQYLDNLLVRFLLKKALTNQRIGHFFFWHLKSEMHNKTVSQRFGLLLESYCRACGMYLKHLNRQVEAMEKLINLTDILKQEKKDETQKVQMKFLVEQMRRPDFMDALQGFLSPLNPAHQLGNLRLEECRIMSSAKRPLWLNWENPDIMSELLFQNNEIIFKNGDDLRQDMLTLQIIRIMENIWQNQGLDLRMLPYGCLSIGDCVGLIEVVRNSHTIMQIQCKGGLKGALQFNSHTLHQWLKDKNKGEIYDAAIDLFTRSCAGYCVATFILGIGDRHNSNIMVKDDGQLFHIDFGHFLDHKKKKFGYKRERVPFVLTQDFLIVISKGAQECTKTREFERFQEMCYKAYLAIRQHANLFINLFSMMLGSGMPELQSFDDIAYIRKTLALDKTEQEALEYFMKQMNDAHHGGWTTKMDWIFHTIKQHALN

FLT3(R834Q) = target: T5, FLT3(R834Q) (Homo sapiens, UniProt P36888, R834Q); assay type: binding; conditions: read-out: % Ctrl
T5 construct: purchased DiscoveRx KINOMEscan

ACVR2A = target: T6, ACVR2A (Homo sapiens, UniProt P27037); assay type: binding; conditions: read-out: % Ctrl
T6 construct: purchased DiscoveRx KINOMEscan

FLT4 = target: T7, FLT4 (Homo sapiens, UniProt P35916); assay type: binding; conditions: read-out: % Ctrl
T7 construct: purchased DiscoveRx KINOMEscan

PIK3CA(I800L) = target: T8, PIK3CA(I800L) (Homo sapiens, UniProt P42336, I800L); assay type: binding; conditions: read-out: % Ctrl
T8 construct: purchased DiscoveRx KINOMEscan

AKT1 = target: T9, AKT1 (Homo sapiens, UniProt P31749); assay type: binding; conditions: read-out: % Ctrl
T9 construct: purchased DiscoveRx KINOMEscan
T9 sequence (P31749 whole entry): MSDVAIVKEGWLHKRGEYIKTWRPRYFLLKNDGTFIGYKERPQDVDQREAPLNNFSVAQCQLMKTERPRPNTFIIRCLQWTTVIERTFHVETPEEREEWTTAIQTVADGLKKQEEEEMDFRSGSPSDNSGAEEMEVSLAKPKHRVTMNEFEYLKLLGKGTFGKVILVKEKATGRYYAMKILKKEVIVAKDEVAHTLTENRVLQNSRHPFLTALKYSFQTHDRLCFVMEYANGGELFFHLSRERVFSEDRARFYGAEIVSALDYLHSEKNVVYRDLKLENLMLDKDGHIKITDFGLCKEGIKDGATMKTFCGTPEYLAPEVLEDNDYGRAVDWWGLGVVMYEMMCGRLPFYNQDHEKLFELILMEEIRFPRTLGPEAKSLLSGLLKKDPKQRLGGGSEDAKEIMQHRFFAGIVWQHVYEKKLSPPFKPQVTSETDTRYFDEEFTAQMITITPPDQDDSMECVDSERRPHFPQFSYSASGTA

PIK3CG = target: T10, PIK3CG (Homo sapiens, UniProt P48736); assay type: binding; conditions: read-out: % Ctrl
T10 construct: purchased DiscoveRx KINOMEscan

AMPK-alpha2 = target: T11, AMPK-alpha2 (Homo sapiens, UniProt P54646); assay type: binding; conditions: read-out: % Ctrl
T11 construct: purchased DiscoveRx KINOMEscan

PKMYT1 = target: T12, PKMYT1 (Homo sapiens, UniProt Q99640); assay type: binding; conditions: read-out: % Ctrl
T12 construct: purchased DiscoveRx KINOMEscan

PLK4 = target: T13, PLK4 (Homo sapiens, UniProt O00444); assay type: binding; conditions: read-out: % Ctrl
T13 construct: purchased DiscoveRx KINOMEscan

INSRR = target: T14, INSRR (Homo sapiens, UniProt P14616); assay type: binding; conditions: read-out: % Ctrl
T14 construct: purchased DiscoveRx KINOMEscan
T14 sequence (P14616 27-1297): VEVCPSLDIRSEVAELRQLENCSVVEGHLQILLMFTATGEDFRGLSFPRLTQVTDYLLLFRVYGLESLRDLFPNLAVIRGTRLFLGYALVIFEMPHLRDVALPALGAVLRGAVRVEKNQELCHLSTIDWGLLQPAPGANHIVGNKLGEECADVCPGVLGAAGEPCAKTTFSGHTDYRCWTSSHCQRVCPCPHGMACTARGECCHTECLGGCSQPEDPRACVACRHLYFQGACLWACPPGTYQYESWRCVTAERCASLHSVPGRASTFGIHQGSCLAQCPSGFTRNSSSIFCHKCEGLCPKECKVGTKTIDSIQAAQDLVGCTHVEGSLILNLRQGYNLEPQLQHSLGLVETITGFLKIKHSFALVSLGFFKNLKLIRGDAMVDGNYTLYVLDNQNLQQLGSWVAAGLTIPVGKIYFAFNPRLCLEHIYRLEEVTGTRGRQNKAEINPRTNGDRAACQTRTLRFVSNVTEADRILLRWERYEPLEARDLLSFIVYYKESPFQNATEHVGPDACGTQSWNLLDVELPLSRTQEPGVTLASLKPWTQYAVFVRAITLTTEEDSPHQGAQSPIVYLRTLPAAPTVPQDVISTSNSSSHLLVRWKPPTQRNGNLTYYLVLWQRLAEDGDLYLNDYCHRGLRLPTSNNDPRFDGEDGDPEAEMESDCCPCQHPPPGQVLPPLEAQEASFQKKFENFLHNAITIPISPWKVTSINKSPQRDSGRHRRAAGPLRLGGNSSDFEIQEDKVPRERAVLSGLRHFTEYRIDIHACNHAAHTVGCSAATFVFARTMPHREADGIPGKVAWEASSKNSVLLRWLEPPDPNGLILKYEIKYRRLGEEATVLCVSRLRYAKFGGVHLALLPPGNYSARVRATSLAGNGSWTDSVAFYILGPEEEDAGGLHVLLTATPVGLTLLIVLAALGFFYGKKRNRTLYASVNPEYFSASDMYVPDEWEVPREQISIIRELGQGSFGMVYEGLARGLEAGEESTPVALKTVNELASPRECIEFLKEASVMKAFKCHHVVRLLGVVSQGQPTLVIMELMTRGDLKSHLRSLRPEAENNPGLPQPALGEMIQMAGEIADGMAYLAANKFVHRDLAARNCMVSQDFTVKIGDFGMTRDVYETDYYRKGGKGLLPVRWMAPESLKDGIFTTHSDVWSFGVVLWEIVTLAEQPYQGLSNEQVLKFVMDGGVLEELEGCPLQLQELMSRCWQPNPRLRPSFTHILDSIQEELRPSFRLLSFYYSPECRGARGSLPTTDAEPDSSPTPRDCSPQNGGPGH

BRAF(V600E) = target: T15, BRAF(V600E) (Homo sapiens, UniProt P15056, V600E); assay type: binding; conditions: read-out: % Ctrl
T15 construct: purchased DiscoveRx KINOMEscan

PRKD1 = target: T16, PRKD1 (Homo sapiens, UniProt Q15139); assay type: binding; conditions: read-out: % Ctrl
T16 construct: purchased DiscoveRx KINOMEscan

PRKD2 = target: T17, PRKD2 (Homo sapiens, UniProt Q9BZL6); assay type: binding; conditions: read-out: % Ctrl
T17 construct: purchased DiscoveRx KINOMEscan

JAK1(JH2D.-pseudoK.) = target: T18, JAK1(JH2D.-pseudoK.) (Homo sapiens, UniProt P23458); assay type: binding; conditions: read-out: % Ctrl
T18 construct: JAK1(JH2D.-pseudoK.); purchased DiscoveRx KINOMEscan

CAMK1 = target: T19, CAMK1 (Homo sapiens, UniProt Q14012); assay type: binding; conditions: read-out: % Ctrl
T19 construct: purchased DiscoveRx KINOMEscan

CDK11 = target: T20, CDK11 (Homo sapiens, UniProt Q9BWU1); assay type: binding; conditions: read-out: % Ctrl
T20 construct: purchased DiscoveRx KINOMEscan

LKB1 = target: T21, LKB1 (Homo sapiens, UniProt Q15831); assay type: binding; conditions: read-out: % Ctrl
T21 construct: purchased DiscoveRx KINOMEscan

LOK = target: T22, LOK (Homo sapiens, UniProt O94804); assay type: binding; conditions: read-out: % Ctrl
T22 construct: purchased DiscoveRx KINOMEscan

SBK1 = target: T23, SBK1 (Homo sapiens, UniProt Q52WX2); assay type: binding; conditions: read-out: % Ctrl
T23 construct: purchased DiscoveRx KINOMEscan

MARK3 = target: T24, MARK3 (Homo sapiens, UniProt P27448); assay type: binding; conditions: read-out: % Ctrl
T24 construct: purchased DiscoveRx KINOMEscan

MEK4 = target: T25, MEK4 (Homo sapiens, UniProt P45985); assay type: binding; conditions: read-out: % Ctrl
T25 construct: purchased DiscoveRx KINOMEscan

SRPK3 = target: T26, SRPK3 (Homo sapiens, UniProt Q9UPE1); assay type: binding; conditions: read-out: % Ctrl
T26 construct: purchased DiscoveRx KINOMEscan

STK16 = target: T27, STK16 (Homo sapiens, UniProt O75716); assay type: binding; conditions: read-out: % Ctrl
T27 construct: purchased DiscoveRx KINOMEscan

MST1R = target: T28, MST1R (Homo sapiens, UniProt Q04912); assay type: binding; conditions: read-out: % Ctrl
T28 construct: purchased DiscoveRx KINOMEscan

EGFR = target: T29, EGFR (Homo sapiens, UniProt P00533); assay type: binding; conditions: read-out: % Ctrl
T29 construct: purchased DiscoveRx KINOMEscan

MYLK = target: T30, MYLK (Homo sapiens, UniProt Q15746); assay type: binding; conditions: read-out: % Ctrl
T30 construct: purchased DiscoveRx KINOMEscan

EGFR(L858R,T790M) = target: T31, EGFR(L858R,T790M) (Homo sapiens, UniProt P00533, L858R/T790M); assay type: binding; conditions: read-out: % Ctrl
T31 construct: purchased DiscoveRx KINOMEscan

TYK2(JH1D.-cat.) = target: T32, TYK2(JH1D.-cat.) (Homo sapiens, UniProt P29597); assay type: binding; conditions: read-out: % Ctrl
T32 construct: TYK2(JH1D.-cat.); purchased DiscoveRx KINOMEscan

WNK2 = target: T33, WNK2 (Homo sapiens, UniProt Q9Y3S1); assay type: binding; conditions: read-out: % Ctrl
T33 construct: purchased DiscoveRx KINOMEscan
T33 sequence (Q9Y3S1 whole entry): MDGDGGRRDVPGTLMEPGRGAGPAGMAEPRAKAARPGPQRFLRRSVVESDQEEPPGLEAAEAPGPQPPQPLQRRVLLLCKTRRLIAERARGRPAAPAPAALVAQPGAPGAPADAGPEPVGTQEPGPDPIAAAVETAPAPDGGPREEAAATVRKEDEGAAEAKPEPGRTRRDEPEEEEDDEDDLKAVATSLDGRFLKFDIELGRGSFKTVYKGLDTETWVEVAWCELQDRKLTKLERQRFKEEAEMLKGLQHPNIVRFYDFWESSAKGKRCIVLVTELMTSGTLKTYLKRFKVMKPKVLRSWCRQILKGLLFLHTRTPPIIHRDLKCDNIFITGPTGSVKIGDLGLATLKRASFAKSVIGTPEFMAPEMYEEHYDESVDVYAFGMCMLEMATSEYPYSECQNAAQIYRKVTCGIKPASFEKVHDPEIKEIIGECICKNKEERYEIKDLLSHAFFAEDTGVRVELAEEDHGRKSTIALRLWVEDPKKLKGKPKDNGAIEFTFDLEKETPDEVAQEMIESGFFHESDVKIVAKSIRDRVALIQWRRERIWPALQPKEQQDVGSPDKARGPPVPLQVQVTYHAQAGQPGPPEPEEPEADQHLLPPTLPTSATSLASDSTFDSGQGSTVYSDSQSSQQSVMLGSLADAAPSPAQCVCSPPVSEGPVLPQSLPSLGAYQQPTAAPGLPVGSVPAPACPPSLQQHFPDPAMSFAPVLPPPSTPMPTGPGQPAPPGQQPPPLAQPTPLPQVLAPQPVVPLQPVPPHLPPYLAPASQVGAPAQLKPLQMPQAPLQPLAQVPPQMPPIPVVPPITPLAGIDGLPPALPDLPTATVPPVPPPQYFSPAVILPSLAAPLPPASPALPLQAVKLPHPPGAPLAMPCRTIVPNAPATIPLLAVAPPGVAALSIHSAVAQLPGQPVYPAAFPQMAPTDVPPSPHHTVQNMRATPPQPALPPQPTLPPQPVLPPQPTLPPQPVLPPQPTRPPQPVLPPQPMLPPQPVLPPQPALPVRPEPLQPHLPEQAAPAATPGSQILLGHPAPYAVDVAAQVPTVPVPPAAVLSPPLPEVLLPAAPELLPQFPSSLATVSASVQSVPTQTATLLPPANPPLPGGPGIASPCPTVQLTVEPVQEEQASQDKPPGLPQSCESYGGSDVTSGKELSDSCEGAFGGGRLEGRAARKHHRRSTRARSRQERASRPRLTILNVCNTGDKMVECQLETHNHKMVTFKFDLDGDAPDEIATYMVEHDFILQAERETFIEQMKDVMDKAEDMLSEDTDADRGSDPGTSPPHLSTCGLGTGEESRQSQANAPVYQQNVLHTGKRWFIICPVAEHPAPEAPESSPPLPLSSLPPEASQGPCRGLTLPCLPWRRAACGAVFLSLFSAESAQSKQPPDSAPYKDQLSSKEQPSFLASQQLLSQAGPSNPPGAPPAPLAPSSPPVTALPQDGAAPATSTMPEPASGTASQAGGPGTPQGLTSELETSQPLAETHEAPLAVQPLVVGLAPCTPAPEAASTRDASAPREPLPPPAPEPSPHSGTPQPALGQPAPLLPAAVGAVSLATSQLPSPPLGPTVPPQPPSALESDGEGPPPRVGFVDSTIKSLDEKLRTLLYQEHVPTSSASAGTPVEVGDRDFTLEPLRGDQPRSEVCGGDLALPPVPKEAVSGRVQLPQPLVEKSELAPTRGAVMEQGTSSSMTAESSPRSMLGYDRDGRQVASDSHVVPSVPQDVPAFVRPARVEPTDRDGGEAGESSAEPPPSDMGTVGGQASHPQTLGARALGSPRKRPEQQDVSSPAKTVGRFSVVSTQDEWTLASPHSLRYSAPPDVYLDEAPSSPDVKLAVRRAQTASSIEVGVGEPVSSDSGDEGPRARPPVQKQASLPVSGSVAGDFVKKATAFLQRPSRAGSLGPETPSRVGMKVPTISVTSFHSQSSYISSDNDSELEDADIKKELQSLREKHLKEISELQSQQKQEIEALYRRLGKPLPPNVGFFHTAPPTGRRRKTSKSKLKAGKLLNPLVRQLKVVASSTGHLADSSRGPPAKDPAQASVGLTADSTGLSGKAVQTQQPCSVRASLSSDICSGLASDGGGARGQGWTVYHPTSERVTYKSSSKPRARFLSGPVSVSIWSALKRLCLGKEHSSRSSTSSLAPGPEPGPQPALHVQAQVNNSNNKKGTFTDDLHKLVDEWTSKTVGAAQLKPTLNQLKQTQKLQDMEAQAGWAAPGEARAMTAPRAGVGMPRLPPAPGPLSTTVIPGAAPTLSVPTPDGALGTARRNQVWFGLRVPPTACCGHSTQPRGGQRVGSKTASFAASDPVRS

## CN1CCC(CNc2ccc3ncc(C(=O)Nc4cccc(OC(F)(F)F)c4)n3n2)CC1 [Cpd 2]
ABL1(F317L)-nonP
  remaining binding at 1 µM: 66%
FLT3(D835Y)
  remaining binding at 1 µM: 65%
FLT3(ITD)
  % Ctrl: 100%
PIK3CA(C420R)
  remaining binding at 1 µM: 100%
PIK3CA(E545A)
  remaining binding at 1 µM: 100%
FLT3(R834Q)
  remaining binding at 1 µM: 100%
ACVR2A
  remaining binding at 1 µM: 100%
FLT4
  remaining binding at 1 µM: 100%
PIK3CA(I800L)
  remaining binding at 1 µM: 81%
AKT1
  remaining binding at 1 µM: 100%
PIK3CG
  remaining binding at 1 µM: 100%
AMPK-alpha2
  remaining binding at 1 µM: 100%
PKMYT1
  remaining binding at 1 µM: 75%
PLK4
  remaining binding at 1 µM: 82%
INSRR
  remaining binding at 1 µM: 94%
BRAF(V600E)
  remaining binding at 1 µM: 100%
PRKD1
  remaining binding at 1 µM: 98%
PRKD2
  remaining binding at 1 µM: 87%
JAK1(JH2D.-pseudoK.)
  remaining binding at 1 µM: 100%
CAMK1
  remaining binding at 1 µM: 98%
CDK11
  remaining binding at 1 µM: 97%
LKB1
  remaining binding at 1 µM: 96%
LOK
  remaining binding at 1 µM: 90%
SBK1
  remaining binding at 1 µM: 100%
MARK3
  remaining binding at 1 µM: 100%
MEK4
  remaining binding at 1 µM: 100%
SRPK3
  remaining binding at 1 µM: 77%
STK16
  remaining binding at 1 µM: 96%
MST1R
  remaining binding at 1 µM: 100%
EGFR
  remaining binding at 1 µM: 94%
MYLK
  remaining binding at 1 µM: 100%
EGFR(L858R,T790M)
  remaining binding at 1 µM: 100%
TYK2(JH1D.-cat.)
  remaining binding at 1 µM: 65%
WNK2
  remaining binding at 1 µM: 77%
